Data as given in PubChem BioAssay AID1626 (SRMLSC, 2009).
pIC50: −log10 of the molar value.

Tested on: M. tuberculosis H37Rv growth inhibition
Assay: M. tuberculosis H37Rv growth inhibitors, H37Rv strain (AID 1626)
Settings: for IC90: measured here: IC90 against H37Rv; for CC50: measured here: Vero cell cytotoxicity

Row | Compound | pIC50 | IC90 | CC50
1 | Cc1ccc(-c2[nH]nc(N)c2N=Nc2ccccc2C)cc1 | 5.26 | 8.36 µM | > 40 µM
2 | O=C1CC(=C(c2ccccc2)c2ccccc2)C(=O)N1CCCCN1CCN(c2cccc(Cl)c2)CC1 | 5.35 | 6.35 µM | > 40 µM
3 | Nc1nc(Cl)cc(N2CCC(c3cc(-c4ccc(Cl)cc4)n[nH]3)CC2)n1 | 4.11 | > 100 µM | 13.6 µM
4 | COc1cc(OC)cc(C(=O)Nc2nc(-c3ccccc3)c(-c3ccccc3)o2)c1 | 6.49 | 4.94 µM | 30.9 µM
5 | Cc1ccc(-c2noc(CCC(=O)NCCCN3CCN(c4cccc(Cl)c4)CC3)n2)cc1 | 5.00 | 13.2 µM | > 40 µM
6 | CCn1c([N+](=O)[O-])nc2c1c(=O)[nH]c(=O)n2C | 6.08 | 1.64 µM | 11.6 µM
7 | Cc1ccc(Cc2cnc(N3C(=N)SC(C)C3=O)s2)cc1 (centres undefined) | 5.45 | 18.1 µM | > 40 µM
8 | COc1ccc(CCNC(=O)c2ccc(CN3CCC(Cc4ccccc4)CC3)cc2)cc1 | – | > 100 µM | > 40 µM
9 | CCOc1ccc2nc(SCC(=O)Nc3ccc4c(c3)OCO4)sc2c1 | 4.60 | > 100 µM | –
10 | CCSc1nnc(NC(=O)c2ccc3ccccc3n2)s1 | 6.20 | 2.19 µM | 38.1 µM
11 | CC1CC(C)CN(C(=O)/C=C/c2ccc([N+](=O)[O-])s2)C1 (centres undefined) | 4.99 | 13.3 µM | 37.4 µM
12 | CCOC(=O)C1=C(c2ccccc2)N=c2s/c(=C\c3ccc(O)cc3)c(=O)n2C1c1cccs1 (centres undefined) | 5.06 | > 100 µM | > 40 µM
13 | CCCCCOc1ccc(C(=O)NCC(=O)NCC(=O)OCC)cc1 | 5.24 | 6.53 µM | > 40 µM
14 | Cc1cc(C(=O)CCl)c(C)n1-c1cccc([N+](=O)[O-])c1 | 5.05 | 15.7 µM | 20.3 µM
15 | COc1ccc(N)c2c1C(=O)c1ccccc1C2=O | 4.76 | > 100 µM | > 40 µM
16 | COC(=O)COc1ccc2c(=O)c(Oc3ccccc3)c(C)oc2c1 | 5.67 | 10 µM | –
17 | CC(=O)C1=C(C)NC(SCC(=O)c2ccc(F)cc2)=C(C#N)C1c1ccco1 (centres undefined) | 4.93 | 21.1 µM | > 40 µM
18 | OC(COC(c1ccc(Cl)cc1)c1ccc(Cl)cc1)CN1CCN(c2ccccn2)CC1 (centres undefined) | 5.01 | 28.3 µM | 35.3 µM
19 | Cn1nc(C(F)(F)F)c2cc(NC(=O)OCC(C)(C)C)sc21 | 4.88 | > 100 µM | –
20 | COC(=O)CSc1nnc(-c2ccc(NS(=O)(=O)c3ccccc3)cc2)o1 | 5.72 | 5.72 µM | –
21 | COc1ccccc1NC(CC(=O)c1ccccc1)C(=O)OCC(=O)c1ccc(Br)cc1 (centres undefined) | 4.86 | 21.1 µM | –
22 | Cc1cc(C)c2c(CN3CCN(Cc4ccc5c(c4)OCO5)CC3)cc(=O)oc2c1C | 4.72 | > 100 µM | –
23 | CCOC(=O)c1cc(-c2csc(COc3ccccc3Cl)n2)on1 | > 6.71 | 3.52 µM | –
24 | O=C(NCc1cccnc1)/C(=C/c1ccc(-c2ccc(Cl)cc2)o1)S(=O)(=O)c1ccccc1 | 5.41 | 29.7 µM | 24 µM
25 | COc1cc(OC)c2c(-c3ccccc3)cc(=O)oc2c1C(CCN1CCCCC1)c1ccc2c(c1)OCO2 (centres undefined) | 5.04 | 12.8 µM | 13.6 µM
26 | Cc1[nH]n(-c2ccc(Br)cc2)c(=O)c1C=Nc1ccc(S(=O)(=O)Nc2nccs2)cc1 | 4.96 | > 100 µM | > 40 µM
27 | CCOc1ccc(NC(C)c2cc(Cl)ccc2O)cc1 (centres undefined) | 4.98 | > 100 µM | –
28 | CCCc1cc(NCCCn2ccnc2)n2nc(C)c(-c3ccccc3)c2n1 | 5.20 | 9.38 µM | > 40 µM

Row | Compound | pIC50 | IC90 | CC50
29 | O=C(CCCSc1ccccc1)Nc1nc(-c2ccccn2)cs1 | 6.62 | 5.04 µM | > 40 µM
30 | CN1CCN(c2ccccc2NC(=O)c2ccc(-c3ccc(Cl)cc3Cl)o2)CC1 | 4.19 | 82.8 µM | > 40 µM
31 | O=C(CCl)N(c1ccccc1)c1c[nH]c2ccccc12 | 5.42 | 8.14 µM | 0.995 µM
32 | O=C(Nc1nc(NC(=O)c2ccco2)n(-c2ccccc2)n1)c1ccccc1 | 5.58 | 6.79 µM | 8.86 µM
33 | OC(CNCC(c1ccc(Cl)cc1Cl)c1c[nH]c2ccccc12)c1ccccc1 (centres undefined) | 5.18 | 10.3 µM | 11.2 µM
34 | CCOc1ccc(-n2cc(-c3ccccc3)c3c(SC(C)C(=O)OC)ncnc32)cc1 (centres undefined) | 5.19 | > 100 µM | –
35 | C=CCn1c(SCc2ccc(C(=O)Nc3nccs3)cc2)nnc1-c1ccc(C)c(Cl)c1 | 5.17 | 17.6 µM | 32.9 µM
36 | CCOC(=O)Nc1ccc(C(=O)Oc2ccccc2)c(O)c1 | > 6.71 | > 100 µM | > 40 µM
37 | COc1ccc2cc(C(=O)C3CCCN(Cc4cnc(C)s4)C3)ccc2c1 (centres undefined) | 4.87 | > 100 µM | –
38 | Cc1ccc(NC2=CC(=O)C(=O)c3ccccc32)cc1 | 5.83 | 1.94 µM | 6.94 µM
39 | CCOC(=O)COc1cc2c3c(c(=O)oc2cc1C)CCCC3 | 5.80 | 10.4 µM | –
40 | Cc1ccc(-c2ccc(/C=C3\SC(N4CCOCC4)=NC3=O)o2)cc1 | 4.63 | > 100 µM | > 40 µM
41 | CCCCCCc1ccc(OCC(=O)OC)cc1OCC(=O)OC | 5.74 | 20.1 µM | –
42 | Cc1nn2c(N3CCN(C)CC3)cc(C(C)(C)C)nc2c1-c1ccccc1 | 5.52 | 4.55 µM | 25.3 µM
43 | O=C(O)c1[nH]c(=O)[nH]c(=O)c1F | 5.18 | 18.4 µM | > 40 µM
44 | Cc1nn(-c2ccccc2)c2c1C(c1ccc([N+](=O)[O-])cc1)N1C(=N2)C(=O)Nc2ccccc21 (centres undefined) | 4.72 | > 100 µM | > 40 µM
45 | COc1cc(/C=C2\COC/C(=C\c3ccc(O)c(OC)c3)C2=O)ccc1O | 5.24 | 10.8 µM | 21.8 µM
46 | CCOc1ccc(-c2nnc(SCC(=O)Nc3cc(C)on3)o2)cc1 | 5.79 | 1.95 µM | > 40 µM
47 | COc1ccc(Cn2c(SCc3cc(C)ccc3C)nc3cc(OC)c(OC)cc3c2=N)cc1 | 5.59 | 2.83 µM | 7.51 µM
48 | CC(C)OC(=O)CSc1ncnc2c1cnn2-c1ccccc1 | 5.06 | 25.2 µM | –
49 | FC(F)(F)c1nnc(-c2ccccc2)nc1Sc1ccccc1 | 4.66 | 25.3 µM | > 40 µM
50 | CCCCCCCCOC(=O)c1c(CSC(=N)N)n(C)c2cc(Br)c(OC(C)=O)cc12 | 4.94 | 15 µM | –
51 | CC(C)(C)c1ccc(-c2nc(NCc3cccnc3)c3ccccc3n2)cc1 | 5.32 | 7.46 µM | > 40 µM
52 | CC1=Nc2ccccc2/C1=C/c1sc(=N)n(-c2nccs2)c1O | > 6.71 | < 0.195 µM | 14.3 µM
53 | Cc1ccc(-c2csc3ncnc(Oc4ccc5c(C)cc(=O)oc5c4)c23)cc1 | > 6.71 | > 100 µM | > 40 µM
54 | CCCCc1ccc(NC(=O)CC(C)C)cc1 | 5.22 | > 100 µM | –
55 | CN1/C(=C\C(=O)c2cccs2)Sc2ccccc21 | 5.25 | 13.6 µM | > 40 µM
